Assays:
[1] = system: bermuda-grass; assay: Test D bermudagrass; format: in vivo, Cynodon dactylon; settings: Preemergence, 0 to 100 scale
Description: (§1) Seeds, tubers, or plant parts of Alexandergrass (Brachiaria plantaginea), bermuda-grass (Cynodon dactylon), common pursiane (Portulaca oleracea), common ragweed (Ambrosia elatior), common groundsel (Senecio vulgaris), dallisgrass (Paspalum dilatatum), goosegrass (Eleusine indica), guineagrass (Panicum maximum), itchgrass (Rottboellia exaltata), Johnson grass (Sorghum halepense), large crabgrass (Digitaria sanguinalis), pitted morningglory (Ipomoea lacunosa), purple nutsedge (Cyperus rotundus), sandbur (Cenchrus echinatus), sourgrass (Trichachne insularis), Spanishneedles (Bidens bipinnata), surinam grass (Brachiaria decumbens) and tall mallow (Malva sylvestris) were planted into greenhouse pots of flats containing greenhouse planting medium. Plant species were grown in separate pots or individual compartments. Preemergence applications were made within one day of planting the seed or plant part.
(§2) Test chemicals were formulated in a non-phytotoxic solvent mixture which included a surfactant and applied preemergence to the surface of the pot containing seeds in a sandy loam soil. Untreated control pots and treated pots were placed in the greenhouse for growth and visually evaluated for injury 14 to 21 days after herbicide application. Plant response ratings, summarized in Table C, are based on a 0 to 100 scale where 0 is no injury and 100 is complete control. A dash (−) response means no test result.

[2] = system: Johnson grass; assay: Test D Johnson grass; format: in vivo, Sorghum halepense; settings: Preemergence, 0 to 100 scale
Description: as §1, §2

[3] = system: goosegrass; assay: Test D goosegrass; format: in vivo, Eleusine indica; settings: Preemergence, 0 to 100 scale
How it was run: (§3)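 Weed seeds planted in sandy loam; species kept apart in individual pots or compartments. Preemergence tests: treatment to soil surface within one day. Greenhouse growth, then visual injury scoring at 14–21 days (0–100).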

[4] = system: Spanishneedles; assay: Test D Spanishneedles; format: in vivo, Bidens bipinnata; settings: Preemergence, 0 to 100 scale
Description: as §1, §2

[5] = system: Green foxtail; assay: Test D green foxtail; format: in vivo
How it was run: as §3

[6] = system: pitted morningglory; assay: Test D pitted morningglory; format: in vivo, Ipomoea lacunosa; settings: Preemergence, 0 to 100 scale
How it was run: as §3

[7] = system: purple nutsedge; assay: Test D purple nutsedge; format: in vivo, Cyperus rotundus; settings: Preemergence, 0 to 100 scale
How it was run: as §3

[8] = system: common pursiane; assay: Test D common purslane; format: in vivo, Portulaca oleracea; settings: Preemergence, 0 to 100 scale
How it was run: as §3

[9] = system: itchgrass; assay: Test D itchgrass; format: in vivo, Rottboellia exaltata; settings: Preemergence, 0 to 100 scale
Description: as §1, §2

[10] = system: Green foxtail; assay: Test D green foxtail; format: in vivo; settings: Preemergence, 0 to 100 scale
Description: as §1, §2

[11] = system: sandbur; assay: Test D sandbur; format: in vivo, Cenchrus echinatus; settings: Preemergence, 0 to 100 scale
Description: as §1, §2

[12] = system: surinam grass; assay: Test D surinam grass; format: in vivo, Brachiaria decumbens; settings: Preemergence, 0 to 100 scale
Description: as §1, §2

[13] = system: large crabgrass; assay: Test D large crabgrass; format: in vivo, Digitaria sanguinalis; settings: Preemergence, 0 to 100 scale
Description: as §1, §2

[14] = system: Alexandergrass; assay: Test D Alexandergrass; format: in vivo, Brachiaria plantaginea; settings: Preemergence, 0 to 100 scale
How it was run: as §3

[15] = system: common ragweed; assay: Test D common ragweed; format: in vivo, Ambrosia elatior; settings: Preemergence, 0 to 100 scale
How it was run: as §3

[16] = system: dallisgrass; assay: Test D dallisgrass; format: in vivo, Paspalum dilatatum; settings: Preemergence, 0 to 100 scale
Description: as §1, §2

[17] = Rate 16 g/ha, 0 no injury, 100 complete control
[18] = Rate 32 g/ha, 0 no injury, 100 complete control
[19] = Rate 64 g/ha, 0 no injury, 100 complete control
[20] = Rate 125 g/ha, 0 no injury, 100 complete control
[21] = Rate 64 g/ha, Preemergence; 0 to 100 scale, 0 no injury, 100 complete control
[22] = Rate 125 g/ha, Preemergence; 0 to 100 scale, 0 no injury, 100 complete control

CC(C)N(C(=O)n1oc(=O)n(C2CC2)c1=O)c1ccc(F)cc1 [Compound 242]
10: Plant response rating, Johnsongrass [2, 17] | Spanishneedles plant response rating [4, 20] | Plant response rating, Spanishneedles ([4]; Rate 250 g/ha) | Plant response rating, P. morninglory [6, 19]
70: Plant response rating, Itchgrass [9, 19]
40: Plant response rating, Johnsongrass [2, 18] | Plant response rating, Johnsongrass [2, 19] | Plant response rating, Spanishneedles ([4]; Rate 500 g/ha) | Purple nutsedge plant response rating [7, 20]
60: Plant response rating, Purple nutsedge ([7]; Rate 250 g/ha) | Plant response rating, Purple nutsedge ([7]; Rate 500 g/ha)
95: Plant response rating, Goosegrass [3, 19]
65: Plant response rating, Itchgrass [9, 17] | Plant response rating, Itchgrass [9, 18] | Plant response rating, Alexandergrass [14, 17] | Plant response rating, Dallisgrass [16, 17]
98: Plant response rating, Bermudagrass [1, 20] | Plant response rating, Johnsongrass ([2]; Rate 250 g/ha) | Plant response rating, Itchgrass ([9]; Rate 250 g/ha) | Plant response rating, Alexandergrass [14, 20] | Plant response rating, Dallisgrass [16, 19] | Plant response rating, Dallisgrass [16, 20]
20: Plant response rating, P. morninglory [6, 20] | Plant response rating, P. morninglory ([6]; Rate 250 g/ha) | Plant response rating, Surinam grass [12, 17]
100: Plant response rating, Bermudagrass ([1]; Rate 250 g/ha) | Plant response rating, Bermudagrass ([1]; Rate 500 g/ha) | Plant response rating, Johnsongrass ([2]; Rate 500 g/ha) | Plant response rating, Goosegrass [3, 20] | Plant response rating, Goosegrass ([3]; Rate 250 g/ha) | Plant response rating, Goosegrass ([3]; Rate 500 g/ha) | Plant response rating, Green foxtail ([5]; Preemergence; Rate 32 g/ha; 0 to 100 scale, 0 no injury, 100 complete control) | Green foxtail plant response rating [5, 21] | Plant response rating, Green foxtail [5, 21] | Green foxtail plant response rating [5, 22] | Plant response rating, Green foxtail [5, 22] | Plant response rating, Green foxtail ([5]; Rate 250 g/ha; Preemergence; 0 to 100 scale) | Plant response rating, Green foxtail ([5]; Rate 500 g/ha, Preemergence; 0 to 100 scale) | Plant response rating, P. morninglory ([6]; Rate 500 g/ha) | Plant response rating, Itchgrass ([9]; Rate 500 g/ha) | Plant response rating, Green foxtail ([10]; Rate 250 g/ha) | Plant response rating, Green foxtail ([10]; Rate 500 g/ha) | Plant response rating, Sandbur ([11]; Rate 250 g/ha) | Plant response rating, Sandbur ([11]; Rate 500 g/ha) | Plant response rating, Surinam grass ([12]; Rate 250 g/ha) | Plant response rating, Surinam grass ([12]; Rate 500 g/ha) | Plant response rating, Large crabgrass [13, 18] | Plant response rating, Large crabgrass [13, 19] | Plant response rating, Large crabgrass [13, 20] | Plant response rating, Large crabgrass ([13]; Rate 250 g/ha) | Plant response rating, Large crabgrass ([13]; Rate 500 g/ha) | Plant response rating, Alexandergrass [14, 19] | Plant response rating, Alexandergrass ([14]; Rate 250 g/ha) | Plant response rating, Alexandergrass ([14]; Rate 500 g/ha) | Plant response rating, C. ragweed [15, 17] | Plant response rating, C. ragweed [15, 18] | Plant response rating, C. ragweed [15, 19] | Plant response rating, C. ragweed [15, 20] | Plant response rating, C. ragweed ([15]; Rate 250 g/ha) | Plant response rating, C. ragweed ([15]; Rate 500 g/ha) | Plant response rating, Dallisgrass ([16]; Rate 250 g/ha) | Plant response rating, Dallisgrass ([16]; Rate 500 g/ha)
0: Plant response rating, Spanishneedles [4, 17] | Plant response rating, Spanishneedles [4, 18] | Spanishneedles plant response rating [4, 19] | Plant response rating, P. morninglory [6, 17] | Plant response rating, P. morninglory [6, 18] | Plant response rating, Purple nutsedge [7, 17] | Plant response rating, Purple nutsedge [7, 18] | Purple nutsedge plant response rating [7, 19] | Plant response rating, C. purslane [8, 17] | Plant response rating, C. purslane [8, 18] | Plant response rating, C. purslane [8, 19] | Plant response rating, C. purslane [8, 20] | Plant response rating, C. purslane ([8]; Rate 250 g/ha) | Plant response rating, C. purslane ([8]; Rate 500 g/ha) | Plant response rating, Sandbur [11, 17] | Plant response rating, Sandbur [11, 18] | Sandbur plant response rating [11, 19]
85: Plant response rating, Bermudagrass [1, 18] | Plant response rating, Bermudagrass [1, 19] | Plant response rating, Johnsongrass [2, 20] | Plant response rating, Goosegrass [3, 18] | Plant response rating, Surinam grass [12, 18] | Surinam grass plant response rating [12, 19] | Plant response rating, Alexandergrass [14, 18] | Plant response rating, Dallisgrass [16, 18]
90: Sandbur plant response rating [11, 20] | Surinam grass plant response rating [12, 20] | Plant response rating, Large crabgrass [13, 17]
80: Plant response rating, Bermudagrass [1, 17] | Plant response rating, Green foxtail ([5]; Preemergence; Rate 16 g/ha; 0 to 100 scale, 0 no injury, 100 complete control) | Plant response rating, Green foxtail ([5]; Rate 16 g/ha; Preemergence; 0 to 100 scale, 0 no injury, 100 complete control) | Plant response rating, Itchgrass [9, 20]
75: Plant response rating, Goosegrass [3, 17]

— patent US6737383B1, “Herbicidal oxadiazolidines” (priority 1999, dated 2004)
